Test results from patent US7468186B2, “Polyomavirus cellular epitopes and uses therefor” (priority 2005, dated 2008).
Where “and” joins values, the source holds several entries; their conditions need not be identical. Equal values may be shown once. Ends that are not written are not given here.

How the values were obtained:
[1] = test system: splenocytes (CD8+ T cells); type: cell-based, HHD-II transgenic mice
[2] = test system: CD8+ T lymphocytes of PBMC; test: In vitro stimulation of human PBMC with peptide and rIL-2, then tetramer reagent labeling and flow analysis
[3] = test system: Jurkat A2.1 cells pulsed with peptide
[4] = target: T1, HLA-A*02 (Homo sapiens, UniProt P04439, D140Y/D185E/D98H/E176V/E277Q/G131W/G231S/I119V/I121R/I166T/I218V/L300P/L318F/N151K/N90K/P208A/P217A/Q86G/Q94H/R138H/R169H/T345S); test: T2 stabilization/HLA-A*02 binding assay (flow cytometry of surface HLA-A2 on peptide-pulsed T2 cells); settings: peptide-pulsed TAP-deficient T2 cells, FIG. 1
T1 construct: Levels of surface HLA-A2 were measured by staining peptide-pulsed T2 cells with a fluorescent-labeled antibody to HLA-A2; endogenous in cells; host or cells: T2 cells (TAP-deficient)

[5] = IVS with BKVp44, healthy HLA-A2 donors
[6] = healthy HLA-A2 volunteers, summary of Table IV
[7] = IVS with JCVp100, healthy HLA-A2 donors
[8] = kidney transplant patient KTx#02 PBMC, two weeks with peptide and IL-2, percentage of CD8+ lymphocytes, FIG. 12

AITEVECFL (Polyomavirus hominis 1) [BK44]
IFN-γ secretion by CD8+ cells on peptide stimulation [1]: induced the secretion of IFN-γ by CD8^+ cells | BOTH (tetBKVp44 and tetJCVp36) ([2]; IVS with BKVp44, double tetramer labeling): 1.79 and 0.02 and 5.7 and 0 (8×) and 0.17 and 13.2 and 2.63 and 3.38 and 0.1 and 6.1 | % tetBKVp44 [2, 5]: 1.89% and 0% (5×) and 6.2% and 0.33% and 0.13% and 14.7% and 3.14% and 3.78% and 0.1% and 0.07% and 6.7% and 0.01% and 0.63% | % tetJCVp36 [2, 5]: 1.72% and 0.01% and 6.6% and 0% (4×) and 0.7% and 0.08% and 0.04% and 15% and 3.07% and 3.65% and 0.1% and 0.07% and 6.2% and 0.05% | individuals with cells positively stained by the BK44 tetramer reagent after in vitro stimulation [2, 6]: 8 of 17 | individuals with cells positively stained by the JC36 tetramer reagent after in vitro stimulation [2, 6]: 8 of 17 | recognition by transgenic murine CTL expanded with BK44 [3]: recognized

ILKEPVNGV [control HIV peptide]
cells producing IFN-γ in response to peptide [1]: 1.94% and 3.2% | proportion of cells responding with IFN-γ production [1]: 0.35%

ILMWEAVTL [JC100]
cells producing IFN-γ in response to peptide [1]: 17.29% and 22.2% | BOTH (tetBKVp108 and tetJCVp100) ([2]; IVS with JCVp100, double tetramer labeling): 0 (6×) and 0.26 and 5.17 and 0.04 and 4.3 and 0.9 | % tetBKVp108 [2, 7]: 0.04% (2×) and 0.05% and 0% (9×) and 0.16% and 0.06% and 0.48% and 4.59% and 0.13% and 5.1% and 0.03% and 0.8% | % tetJCVp100 [2, 7]: 0.02% and 0% (11×) and 0.28% and 0.59% and 3.5% and 0.09% and 1.36% and 5.1% and 0.08% and 1.05% | individuals positive for staining with the BK108 tetramer reagent after in vitro stimulation [2, 6]: 5 of 20 | tetramer reagent binding cells that bound both the BKV and JVC tetramer reagents ([2]; kidney transplant patient KTx#02 PBMC after in vitro stimulation, FIG. 13): 63% | cells binding the BKV tetramer reagent after in vitro stimulation [2, 8]: 4.4% | cells binding the JVC tetramer reagent after in vitro stimulation [2, 8]: 3.7% | recognition by transgenic murine CTL expanded with BK108 [3]: recognized

LLIKGGVEV (Polyomavirus hominis 1) [BK27b]
HLA-A2 binding (increase in relative fluorescence intensity on T2 cells) [4]: highest binding function

LLMWEAVTV [BK108]
result of cytotoxicity and ICC assays [3]: positive results

NLLMWEAVTV [BK107]
result of cytotoxicity and ICC assays [3]: positive results

SITEVECFL [JC36]
recognition by transgenic murine CTL expanded with BK44 [3]: recognized
